Data published in patent US20200009137A1, “TOPICAL FORMULATIONS AND USES THEREOF” (SUN PHARMA GLOBAL FZE, priority 2015, published 2020).

Legend:
[1] = 1H NMR qualitative studies for free drug; type: physicochemical; settings: D2O; drug peaks evident in CDCl3
Method: To determine the absence of free drug in the outer aqueous environment, qualitative studies were conducted. Qualitative proton nuclear magnetic resonance (NMR) studies were conducted with Varian 400 MHz NMR. Deuterated chloroform and water as solvent systems were used to resuspend the formulation and NMR studies were performed.

[2] = Ocular tissue distribution of RX-10045 / RX-10008 (LC-MS/MS); type: in vivo, rabbit; settings: topical ocular RX-10045 formulations 4×/day for 5 days, rabbits
Method: A study was conducted in rabbits to test the tolerance and ocular tissue distribution of two nanomicellar formulations of compound 1001 (RX10045) against matching placebos (Table 7a and 7b) and balanced saline solution (BSS). Healthy New Zealand female white rabbits (2-3 kg) were used for this study. One drop (approximately 35 μL) of study drug was applied o.d. 4×/day at two hour intervals for 5 days. One drop of BSS was applied to the contralateral eye.
Selected ocular fluids/tissues (aqueous humor, vitreous humor, conjunctiva, cornea, iris-ciliary body, lens, retina/choroid, and sclera) collected from two rabbits each in the RX-10045 (0.15% in HCO-60, 0.1% in HCO-40) treatment groups, and from one rabbit in each of the matching placebo groups, were assayed for compound 1001 and another resolvin by liquid chromatography-tandem mass spectrometry (LC-MS/MS). Warfarin-d5 and 5-HDA were used as internal standards for the analysis of RX-10045 and its active metabolite, RX-10008, respectively, in aqueous humor and vitreous humor. For the other ocular tissues (solid tissues), warfarin-d5 and phenyl acetic acid-d5 (PAA-d5) were used as the internal standards for compound 1001 and RX-10008, respectively. The analytical range for the solid tissues were 0.125-100 ng. The results of the solid tissue analyses were converted to ng/g by correcting for the amount of tissue analyzed.

Free drug when MNF is resuspended in aqueous solution (qualitative proton NMR) [1]: not freely available
Structure (SMILES): C#CC[C@@H](O)/C=C/C=C/C#C[C@@H](O)CCCC(=O)OC(C)C [compound 1001]
Compound 1001 in the majority of ocular tissues [2]: either not detected or was below the quantitation limit of the assay
